Measured values taken from patent publication US4855287A, “Aminoglycoside compounds, processes for production thereof, and pharamaceutical composition containing the same” (Kowa Company, Ltd., priority 1985, dated 1989).
Read-outs that look alike come from different tables or passages of the source.

Test system: Bacillus subtilis ATCC 6633
Test: Test for antibacterial activity (paper disk, diameter of inhibitory zone, before and after incubation in rat liver/kidney homogenate)
Assay type: cell-based
Details: 200 mcq/ml, 8 mm paper disk
Protocol: Each of the test compounds shown in the following table was dissolved in a concentration of 200 mcq/ml in a homogenate of a 10% physiological saline solution of an organ of a rat, and incubated at 37° C. for 2 hours. An enzymatic reaction was stopped by adding an equal amount of ethanol. The antibacterial activity of the test compound before incubation was compared with that after incubation. The incubation was carried out in an equal amount mixture of a liver homogenate and a kidney homogenate. The antibacterial activity was measured by a paper disk having a diameter of 8 mm using Bacillus subtilis ATCC 6633 as a test organism, and shown by the diameter of the resulting inhibitory zone.

[1] = ATCC6633, after incubation at 37° C. for 2 hours in rat liver homogenate and kidney homogenate, read-out: Diameter of the inhibitory zone, after incubation
[2] = ATCC6633, before incubation, read-out: Diameter of the inhibitory zone, before incubation

Compound | zone of inhibition at 200 µg/mL [1] | zone of inhibition at 200 µg/mL [2]
CC(=O)NCCCC[C@H](N)C(=O)NCC(=O)N(C)C1C(O)CC(N)C(OC2OC(C(C)N)CCC2N)C1O (stereo partly drawn) [Example 1, 2"-N-(N^ε -acetyl-L-lysyl)-5-de-O-methyl-KA-6606I] | 25.1 mm | 14.1 mm
CCCCCCCCCC(=O)NCCCC[C@H](N)C(=O)NCC(=O)N(C)C1C(O)CC(N)C(OC2OC(C(C)N)CCC2N)C1O (stereo partly drawn) [Example 2, 2"-N-(N^ε -decanoyl-L-lysyl)-5-de-O-methyl-KA-6606I] | 22 mm | 15.9 mm
CCCCCCCCCCCCCCCCCC(=O)NCCCC[C@H](N)C(=O)NCC(=O)N(C)C1C(O)CC(N)C(OC2OC(C(C)N)CCC2N)C1O (stereo partly drawn) [Example 3, 2"-N-(N^ε -stearoyl-L-lysyl)-5-de-O-methyl-KA-6606I] | 15.5 mm | 14 mm
CC(N)C1CCC(N)C(OC2C(N)CC(O)C(N(C)C(=O)CNC(=O)[C@@H](N)CCCCNC(=O)CC[C@@H](C)[C@H]3CC[C@H]4[C@@H]5CC[C@@H]6C[C@H](O)CC[C@]6(C)[C@H]5C[C@H](O)[C@]34C)C2O)O1 (stereo partly drawn) [Example 4, 2"-N-(N^ε -deoxycholyl-L-lysyl)-5-de-O-methyl-KA-6606I] | 19.8 mm | 12.7 mm
CCCCCCCCCC(=O)NCC(=O)NCCCC[C@H](N)C(=O)NCC(=O)N(C)C1C(O)CC(N)C(OC2OC(C(C)N)CCC2N)C1O (some centres unmarked) [Example 5] | 21 mm | 15.5 mm
CCCCCCCCCCCCCCCCCC(=O)NCC(=O)NCCCC[C@H](N)C(=O)NCC(=O)N(C)C1C(O)CC(N)C(OC2OC(C(C)N)CCC2N)C1O (stereo partly drawn) [Example 6, 2"-N-[N^ε -(N-stearoylglysyl)-L-lysyl]-5-de-O-methyl-KA-6606I] | 16.6 mm | 10.5 mm
CCCCCCCCOC(=O)NCCCC[C@H](N)C(=O)NCC(=O)N(C)C1C(O)CC(N)C(OC2OC(C(C)N)CCC2N)C1O (stereo partly drawn) [Example 7, 2"-N-(N^ε -octyloxycarbonyl-L-lysyl)-5-de-O-methyl-KA-6606I] | 20.7 mm | 10.5 mm
COC(=O)C[C@H](N)C(=O)NCC(=O)N(C)C1C(O)CC(N)C(OC2OC(C(C)N)CCC2N)C1O (stereo partly drawn) [Example 8, 2"-N-(β-O-methyl-L-aspartyl)-5-de-O-methyl-KA-666I] | 23.9 mm | 15.9 mm
CC(N)C1CCC(N)C(OC2C(N)CC(O)C(N(C)C(=O)CNC(=O)[C@@H](N)CC(=O)OC(C)(C)C)C2O)O1 (stereo partly drawn) [Example 9, 2"-N-(β-O-tert.-butyl-L-aspartyl)-5-de-O-methyl-KA-6606I] | 23.2 mm | 12.7 mm
CCCCCCCCOC(=O)C[C@H](N)C(=O)NCC(=O)N(C)C1C(O)CC(N)C(OC2OC(C(C)N)CCC2N)C1O (stereo partly drawn) [Example 10, 2"-N-(β-O-octyl-L-aspartyl)-5-de-O-methyl-KA-6606I] | 21.1 mm | 14.2 mm
CC(N)C1CCC(N)C(OC2C(N)CC(O)C(N(C)C(=O)CNC(=O)[C@@H](N)CC(=O)Oc3ccccc3)C2O)O1 (stereo partly drawn) [Example 11, 2"-N-(β-O-phenyl-L-aspartyl)-5-de-O-methyl-KA-6606I] | 19 mm | 14 mm
CC(N)C1CCC(N)C(OC2C(N)CC(O)C(N(C)C(=O)CNC(=O)[C@@H](N)CC(=O)Oc3cccc4ccccc34)C2O)O1 (stereo partly drawn) [Example 12, 2"-N-[β-O-(α-naphthyl)-L-aspartyl]-5-de-O-methyl-KA-6606I] | 18.3 mm | 12.6 mm
CCCCCCCCCCCCCCCCCC(=O)OCC(O)COC(=O)C[C@H](N)C(=O)NCC(=O)N(C)C1C(O)CC(N)C(OC2OC(C(C)N)CCC2N)C1O (stereo partly drawn) [Example 13, 2"-N-[β-O-(3-stearoyloxy-2-hydroxypropyl)-L-aspartyl]-5-de-O-methyl-KA-6606I] | 18.8 mm | 13.7 mm
